Experimental data taken from ChEMBL document CHEMBL2406906, “1,2,4-Triazole derivatives as transient inactivators of kallikreins involved in skin diseases” (Bioorg Med Chem Lett, 2013).
Calls of active or inactive are those of the source. The rule behind the calls is not given here.

Key:
Kallikrein-7 [1] = target: T1, Kallikrein-7 (Homo sapiens, UniProt P49862); assay: Inhibition of human kallikrein 7 measured after 15 mins at pH 8 by fluorescence assay
Target sequence in this assay (P49862 whole entry): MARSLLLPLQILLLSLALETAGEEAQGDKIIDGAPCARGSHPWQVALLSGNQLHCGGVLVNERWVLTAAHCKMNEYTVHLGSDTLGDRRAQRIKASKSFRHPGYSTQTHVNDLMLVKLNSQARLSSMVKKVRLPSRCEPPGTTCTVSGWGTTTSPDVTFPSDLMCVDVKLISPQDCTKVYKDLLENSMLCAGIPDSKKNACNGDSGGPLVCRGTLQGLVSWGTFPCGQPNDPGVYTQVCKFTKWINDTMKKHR

Kallikrein-7 [2] = target: T1, Kallikrein-7; assay: Binding affinity to human kallikrein 7 assessed as half life of deacylated enzyme
Target sequence in this assay (P49862 30-253 limits assumed): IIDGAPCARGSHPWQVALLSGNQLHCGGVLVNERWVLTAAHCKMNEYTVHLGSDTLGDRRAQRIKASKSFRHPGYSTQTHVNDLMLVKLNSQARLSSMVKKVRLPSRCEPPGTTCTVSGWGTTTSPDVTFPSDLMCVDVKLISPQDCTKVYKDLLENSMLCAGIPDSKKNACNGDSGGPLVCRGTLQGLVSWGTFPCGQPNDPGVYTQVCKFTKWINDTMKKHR

Kallikrein-5 [3] = target: T2, Kallikrein-5 (Homo sapiens, UniProt Q9Y337); assay: Inhibition of human kallikrein 5 measured after 15 mins at pH 8 by fluorescence assay
T2 sequence (Q9Y337 whole entry): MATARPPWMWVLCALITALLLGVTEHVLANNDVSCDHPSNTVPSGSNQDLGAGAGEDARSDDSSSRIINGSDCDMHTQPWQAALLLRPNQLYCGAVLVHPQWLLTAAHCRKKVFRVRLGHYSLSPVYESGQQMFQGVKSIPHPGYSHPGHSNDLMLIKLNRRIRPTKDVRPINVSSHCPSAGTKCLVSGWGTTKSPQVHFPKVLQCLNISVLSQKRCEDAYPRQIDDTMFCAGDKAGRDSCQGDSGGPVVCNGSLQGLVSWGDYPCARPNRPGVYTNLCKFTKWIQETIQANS

[4] = Cytotoxicity against human keratinocytes at 1 to 10 uM after 48 hrs by neutral red uptake assay; format: cell-based; details: keratinocyte
Kallikrein-7 [5] = target: T1, Kallikrein-7; assay: Binding affinity to human kallikrein 7 assessed as deacylation of enzyme relative to control
Target sequence in this assay (P49862 30-253 limits assumed): as the sequence (P49862 30-253 limits assumed) above

[6] = target: T3, Suppressor of tumorigenicity 14 protein (Homo sapiens) (UniProt Q9Y5Y6); assay: Binding affinity to human matriptase assessed as half life of deacylated enzyme
T3 sequence (whole entry): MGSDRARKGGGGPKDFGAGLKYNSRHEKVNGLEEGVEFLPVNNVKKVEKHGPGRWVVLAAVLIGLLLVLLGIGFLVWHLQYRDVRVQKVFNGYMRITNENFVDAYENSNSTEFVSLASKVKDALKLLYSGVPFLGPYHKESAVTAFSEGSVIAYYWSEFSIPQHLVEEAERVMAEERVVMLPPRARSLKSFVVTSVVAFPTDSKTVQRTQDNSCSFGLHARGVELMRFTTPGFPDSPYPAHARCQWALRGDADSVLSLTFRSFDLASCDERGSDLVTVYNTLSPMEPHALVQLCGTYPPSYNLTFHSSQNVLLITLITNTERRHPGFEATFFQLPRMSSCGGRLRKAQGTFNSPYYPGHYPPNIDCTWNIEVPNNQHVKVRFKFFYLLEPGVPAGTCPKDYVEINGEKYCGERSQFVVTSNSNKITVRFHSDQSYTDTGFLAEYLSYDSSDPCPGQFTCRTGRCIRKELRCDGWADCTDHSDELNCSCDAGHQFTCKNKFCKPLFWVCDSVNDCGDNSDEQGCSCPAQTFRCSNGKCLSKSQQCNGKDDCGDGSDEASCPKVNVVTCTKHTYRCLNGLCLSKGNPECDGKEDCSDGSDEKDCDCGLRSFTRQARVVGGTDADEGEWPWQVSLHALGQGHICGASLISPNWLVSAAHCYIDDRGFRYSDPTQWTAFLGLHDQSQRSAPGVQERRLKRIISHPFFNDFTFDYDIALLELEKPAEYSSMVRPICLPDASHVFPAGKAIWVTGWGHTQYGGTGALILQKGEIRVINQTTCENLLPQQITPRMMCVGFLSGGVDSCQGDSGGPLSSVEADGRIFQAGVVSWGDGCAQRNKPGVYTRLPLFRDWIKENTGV

[7] = target: T4, Suppressor of tumorigenicity 14 protein (Homo sapiens, UniProt Q9Y5Y6); assay: Inhibition of human matriptase measured after 15 mins at pH 8 by fluorescence assay
T4 sequence (Q9Y5Y6 whole entry): T3 sequence (whole entry)

Kallikrein-14 = target: T5, Kallikrein-14 (Homo sapiens, UniProt Q9P0G3); assay: Inhibition of human kallikrein 14 measured after 15 mins at pH 8 by fluorescence assay
T5 sequence (Q9P0G3 whole entry): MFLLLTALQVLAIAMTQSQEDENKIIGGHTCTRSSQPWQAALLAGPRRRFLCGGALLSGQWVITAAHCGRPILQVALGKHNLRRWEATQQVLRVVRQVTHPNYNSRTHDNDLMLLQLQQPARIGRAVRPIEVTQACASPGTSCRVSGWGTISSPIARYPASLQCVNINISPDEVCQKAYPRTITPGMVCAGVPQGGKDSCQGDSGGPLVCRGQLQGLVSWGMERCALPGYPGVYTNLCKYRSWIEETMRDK

[8] = target: T6, Kallikrein-14 (Homo sapiens) (UniProt Q9P0G3); assay: Binding affinity to human kallikrein 14 assessed as half life of deacylated enzyme
T6 sequence (whole entry): T5 sequence (Q9P0G3 whole entry)

Kallikrein-7 [9] = target: T1, Kallikrein-7; assay: Inhibition of human kallikrein 7 at 0.5 to 8 uM at pH 8 by fluorescence assay; details: TDE = time-dependent effect
Target sequence in this assay (P49862 30-253 limits assumed): as the sequence (P49862 30-253 limits assumed) above

[10] = target: Kallikrein-5 (Homo sapiens) (UniProt Q9Y337); assay: Binding affinity to human kallikrein 5 assessed as deacylation of enzyme relative to control
[11] = target: Kallikrein-5 (Homo sapiens) (UniProt Q9Y337); assay: Inhibition of human kallikrein 5 at 0.5 to 8 uM at pH 8 by fluorescence assay; details: TDE = time-dependent effect
[12] = target: Kallikrein-5 (Homo sapiens) (UniProt Q9Y337); assay: Inhibition of human kallikrein 5 at 296 nM to 1 uM at pH 8 by fluorescence assay; details: TDE = time-dependent effect
[13] = target: Kallikrein-5 (Homo sapiens) (UniProt Q9Y337); assay: Transient inhibition of human kallikrein 5 assessed as spontaneous reactivation up to 6 hrs
Kallikrein-7 [14] = target: T1, Kallikrein-7; details: 296 nM
Target sequence in this assay (P49862 30-253 limits assumed): as the sequence (P49862 30-253 limits assumed) above
Description: Inhibition of human kallikrein 7 at 296 nM to 1 uM at pH 8 by fluorescence assay

Kallikrein-5 [15] = target: T2, Kallikrein-5; assay: Inhibition of human kallikrein 5 measured after 15 mins at pH 8 by double-reciprocal plot analysis

| SMILES | IC50 (Kallikrein-7 [1]; read-out: IC50) | IC50 (Kallikrein-5 [3]; read-out: IC50) | fold change (FC) (Kallikrein-7 [5]) | IC50 ([7]; read-out: IC50) | IC50 (Kallikrein-14; read-out: IC50) | T1/2 [8] | Activity [4] | also measured |
| --- | --- | --- | --- | --- | --- | --- | --- | --- |
| CSc1nc(-c2ccc(Cl)cc2)nn1C(=O)c1ccccc1 | 660 nM | 140 nM | 0.2 | 420 nM | 970 nM | 5 min | Non-toxic | T1/2 (Kallikrein-7 [2]): 39 min; T1/2 [6]: 5 min |
| Nc1nc(-c2cccnc2)nn1C(=O)c1ccc(Cl)cc1Cl | 3500 nM | > 30000 nM | – | – | – | – | – | IC50 [7]: Not Active; IC50 (Kallikrein-14): Not Active |
| COc1ccc(C(=O)n2cnnc2N)cc1 | 610 nM | 990 nM | – | > 30000 nM | 3430 nM | 5 min | Non-toxic | – |
| C/C(=C\c1ccccc1)C(=O)n1nnc2ccccc21 | – | – | – | – | – | – | – | IC50 (Kallikrein-7 [1]): Not Active; IC50 (Kallikrein-5 [3]): Not Active; IC50 [7]: Not Active; IC50 (Kallikrein-14): Not Active |

More lines, main results first:

| IC50 (Kallikrein-7 [1]; read-out: IC50) | IC50 (Kallikrein-5 [3]; read-out: IC50) | fold change (FC) (Kallikrein-7 [5]) | IC50 ([7]; read-out: IC50) | IC50 (Kallikrein-14; read-out: IC50) | T1/2 [8] | SMILES | Activity [4] | also measured |
| --- | --- | --- | --- | --- | --- | --- | --- | --- |
| 230 nM | 1300 nM | 0.2 | > 30000 nM | > 30000 nM | – | COc1ccc(C(=O)n2nc(-c3ccccc3)nc2N)cc1OC | – | inhibition (Kallikrein-7 [9]): tde; fold change (FC) [10]: 4; inhibition [11]: tde |
| 40 nM | 270 nM | – | 570 nM | 1290 nM | 5 min | Cc1ccc(C(=O)n2nc(-c3cccnc3)nc2N)cc1 | Non-toxic | inhibition [12]: tde; inhibition [13]: Active; inhibition (Kallikrein-7 [14]): tde; Ki (Kallikrein-5 [15]): 4400 nM; T1/2 [6]: 5 min |
| 220 nM | 1140 nM | 2 | > 30000 nM | > 30000 nM | – | Nc1nc(-c2cccnc2)nn1C(=O)c1ccc(Cl)cc1 | – | fold change (FC) [10]: 8 |
